From patent publication US20150125893A1, “TRANSPORTER BIOSENSORS” (Carnegie Institute of Washington, priority 2013, published 2015)

Tests used:
OzTrac-MSL10 = OzTrac-MSL10 FRET osmosensor expressed in yeast cells, response to osmolytes; format: cell-based, Arabidopsis thaliana; details: for FRET emission ratio: addition of 1M osmolyte; for FRET emission ratio / FRET response to osmolyte: yeast cells; for FRET response to osmolyte: hyper-osmotic stress, NaCl at 1M
Excerpt: Fusion proteins comprising the mechanisensitive channel small conductance-like 10 (AtMSL10) were constructed, potentially creating an osmosensor. […] This t9AFP-AtMSL10-t7TFPt9 protein is named as OzTrac-MSL10. […] Upon treatment of 1 M NaCl, which induces hyper-osmotic stress, AtMSL10 will undergo a conformational change into the closed state which causes the FRET pairs to come closer, resulting in a higher FRET.
The OzTrac-MSL10 FRET sensor can detect a range of osmolarity concentration changes. […] The calculation of the dissociation constant is around 0.5 M for NaCl and KCl, and around 1M for […] and […].

[1] = test system: CHL1 nitrate transporter (AFPt9 in central loop, Teal-t9 in loop between helices 10 and 11)
Excerpt: (§1) All transporter and sensor constructs were inserted in the yeast expression vector pDRFlip30, 34, 35, 39, 42-GW. The details of the vectors are as follows: pDRFlip30 using pair of N-terminal fluorescent protein Aphordite t9 (AFPt9), 9 amino acids truncated of C-term of AFP, and C-terminal fluorescent protein monomeric Cerulean (mCer); pDRFlip 39 using pair of N-terminally fused fluorescent protein enhanced dimer Aphrodite t9 (edAFPt9) and C-terminal fluorescent protein enhanced dimer, 7 amino acids and 9 amino acids truncated of N-term and C-term of eCyan (t7.ed.eCFPt9), respectively; pDRFlip 42 using pair of N-terminal fluorescent protein Citrine and C-terminal fluorescent protein mCer; pDRFlip 34 using pair of N-terminal fluorescent protein AFPt9 and C-terminal fluorescent protein t7.Teal.t9 (t7.TFP.t9), and pDRFlip 35 using pair of N-terminal fluorescent protein AFPt9 and C-terminal fluorescent protein mTFPt9. All vectors contained […] replication origin, GATEWAY™ cassette-attR1-CmR-ccdB gene-attR2 sequence, which is between the pair of fluorescent proteins, a PMA1 promoter fragment, an ADH terminator, different pairs of fluorescent proteins, and the URA cassette for selection in yeast. The full length ORF of NRT1.1 and different mutants of NRT1.1, such as T101A, T101D, P492L from Arabidopsis (At1g12110) in TOPO GATEWAY™ entry vector were used to prepare the nitrate sensors of the present invention. The yeast vector harboring the constructs was then created by the GATEWAY™ LR reaction between different forms of pTOPO-NRT and different pDRFlip-GWs, following manufacturer's instructions..
(§2) Yeast strains used in this study were BJ5465 [MATa, ura3-52, trp1, leu2Δ1, his3Δ200, pep4::HIS3, prb1Δ1.6R, cant GAL+] obtained from Yeast Genetic Stock Center (University of California, Berkeley, Calif.). Yeast was transformed using the lithium acetate method and selected on solid YNB (minimal yeast medium without nitrogen; Difco) supplemented with 2% glucose and -Ura DropOut (Clontech).

[2] = test system: CHL1 nitrate transporter (Aphrodite-t9 N-terminus, Teal-t9 C-terminus)
Excerpt: as §1, §2

[3] = test system: pDRFlip302 (NRT1.1 with AFPt9 and mCerulean)
Excerpt: as §1, §2

[4] = test system: NRT1.1 T101A mutant fusion protein; assay: Nitrate sensor fluorescence response in yeast, NRT1.1 T101A low affinity mutant fusion protein; format: cell-based, Arabidopsis thaliana
Experimental: Yeast strains used in this study were BJ5465 [MATa, ura3-52, trp1, leu2Δ1, his3Δ200, pep4::HIS3, prb1Δ1.6R, cant GAL+] obtained from Yeast Genetic Stock Center (University of California, Berkeley, Calif.). Yeast was transformed using the lithium acetate method and selected on solid YNB (minimal yeast medium without nitrogen; Difco) supplemented with 2% glucose and -Ura DropOut (Clontech). Single colonies were grown in 5 mL liquid YNB supplemented with 2% glucose and -Ura DropOut under agitation (220 rpm) at 30° C. until OD600 nm˜0.8 was reached. The liquid cultures were subcultured by diluted to OD600 nm 0.01 in the same liquid medium and conditions at 30° C. until OD600 nm 0.2 was reached. […] Fluorescence was measured by a fluorescence plate reader (M1000, TECAN), in bottom reading mode using a 7.5 nm bandwidth for both excitation and emission. To measure fluorescence response to substrate addition, 100 μL of substrate (dissolved in MES buffer as 500% stock solution) were added to 100 μL of cells in a 96-well plate (Greiner). Fluorescence from cultures harboring yeast expression vectors pDRFlip30, 39, and 42 was measured as emission at λem=470-570 nm using excitation at λexc=428 nm and fluorescence using yeast expression vector pDRFlip34 and 35 was measured as emission at λem=470-570 nm using excitation at λexc=440 nm.

SMILES | FRET emission ratio (OzTrac-MSL10) | FRET response to osmolyte (OzTrac-MSL10) | further results
[Cl-].[K+] [KCl, potassium chloride] | higher FRET emission ratio | increased the FRET | –
O=[N+]([O-])O [nitrate] | – | – | change in FRET on addition of nitrate [1]: does not induce a change in FRET; change in FRET on addition of nitrate [2]: does not induce a change in FRET; change in FRET on addition of nitrate [3]: does not induce a change in FRET
OCC(O)CO [glycerol] | higher FRET emission ratio | increased the FRET | –
[Cl-].[Na+] [NaCl, sodium chloride] | higher FRET emission ratio | dramatic FRET change | emission spectrum change (OzTrac-MSL10; 1M NaCl, excitation at 440 nm): decrease in fluorescence intensity of donor and increase of acceptor; FRET change with serial concentrations (OzTrac-MSL10; serial NaCl concentrations (mM), excitation at 440 nm): concentration-dependent FRET changes
OC[C@@H](O)[C@@H](O)[C@H](O)[C@@H](O)CO [sorbitol] | higher FRET emission ratio | increased the FRET | –
O=[N+]([O-])[O-].[K+] [KNO3] | – | – | sensor response ([4]; high levels of KNO3): only responds to addition of high levels; sensor response ([4]; low levels of KNO3): does not respond
